Experimental data from paper PMC3475186 (Cell, 2012).

Biological target: hTPC2 (TPC2; TPCN2; hTPC2-EGFP) (Homo sapiens, UniProt Q8NHX9)
Test: whole-endolysosome patch clamp
Assay type: cell-based

hTPC2 (TPC2; TPCN2; hTPC2-EGFP), sequence (Q8NHX9 whole entry): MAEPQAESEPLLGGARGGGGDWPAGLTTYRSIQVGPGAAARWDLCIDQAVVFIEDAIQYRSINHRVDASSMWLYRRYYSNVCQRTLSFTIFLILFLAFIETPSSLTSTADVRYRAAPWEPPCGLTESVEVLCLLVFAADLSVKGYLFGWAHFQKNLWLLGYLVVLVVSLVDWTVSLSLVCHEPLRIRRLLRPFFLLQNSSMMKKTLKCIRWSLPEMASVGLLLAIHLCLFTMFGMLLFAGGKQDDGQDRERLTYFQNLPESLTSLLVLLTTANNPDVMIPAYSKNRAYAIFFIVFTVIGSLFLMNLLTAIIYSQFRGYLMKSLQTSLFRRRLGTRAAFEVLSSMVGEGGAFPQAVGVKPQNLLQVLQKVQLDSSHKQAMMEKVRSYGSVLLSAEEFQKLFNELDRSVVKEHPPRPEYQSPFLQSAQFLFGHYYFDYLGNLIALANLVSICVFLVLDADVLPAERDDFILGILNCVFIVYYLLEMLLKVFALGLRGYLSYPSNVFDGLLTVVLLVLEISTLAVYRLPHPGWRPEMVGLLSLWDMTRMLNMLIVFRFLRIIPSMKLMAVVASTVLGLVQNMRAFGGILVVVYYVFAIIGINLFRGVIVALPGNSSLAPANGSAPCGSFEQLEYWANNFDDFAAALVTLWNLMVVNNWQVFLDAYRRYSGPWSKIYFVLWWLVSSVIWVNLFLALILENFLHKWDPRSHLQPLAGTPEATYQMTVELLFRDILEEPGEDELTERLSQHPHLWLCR

In the case of `CCCCCCCC(=O)OC[C@H](COP(=O)(O)O[C@@H]1[C@H](O)[C@H](OP(=O)(O)O)[C@@H](O)[C@H](OP(=O)(O)O)[C@H]1O)OC(=O)CCCCCCC` [diC8 PI(3,5)P2], the EC50 is reported as 390 ± 94 nM.
